pEC50: −log10 of the molar value.

The term pEC50 denotes the negative decadic logarithm of the EC50, by convention in mol/L.

Test [1] has as its target T1, short form of the GPR120 receptor (Homo sapiens, UniProt Q5NUL3).
T1 construct: host or cells: PathHunter CHO-K1 GPR120S β-Arrestin Cell Line
T1 sequence (Q5NUL3 1-361): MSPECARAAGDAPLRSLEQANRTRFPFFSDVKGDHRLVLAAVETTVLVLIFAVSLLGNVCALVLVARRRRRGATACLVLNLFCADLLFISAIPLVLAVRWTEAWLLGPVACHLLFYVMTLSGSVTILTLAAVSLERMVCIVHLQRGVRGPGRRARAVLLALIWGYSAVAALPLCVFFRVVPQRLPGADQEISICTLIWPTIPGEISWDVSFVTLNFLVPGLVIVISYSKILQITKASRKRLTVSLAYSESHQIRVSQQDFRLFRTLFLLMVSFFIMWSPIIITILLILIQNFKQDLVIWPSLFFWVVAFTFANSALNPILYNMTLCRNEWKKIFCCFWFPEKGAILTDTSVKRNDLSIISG
Description: Human GPR120 DiscoveRx PathHunter Beta-Arrestin Assay, Procedure β-arrestin B (5000 cells/well). The format is cell-based. An outline of the steps: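 PathHunter CHO-K1 cells expressing short-form GPR120 (NM_181745), seeded at 5000 cells/well, were exposed to compound for 90 min at 37 °C in HBSS/20 mM HEPES/0.1% BSA, pH 7.4. Dilutions ran 25–0.012 µM before addition to wells. β-arrestin recruitment was read by EFC β-gal luminescence, and EC50 was fitted to % activity versus positive control with Hill slope fixed at 1.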

Test [2] has as its system C57bl/6J Mice. Description: GPR120 C57bl6 Mouse IPGTT. The format is in vivo. As to the method: (§1) Male, C57bl/6J Mice were ordered in at 8 weeks of age from Jackson Labs. Individual mice weighed anywhere in the range of 25-30 grams on study day. The mice were fasted, with removal of food occurring at 7 am on the morning of the study. Animals were moved into the room at 10:00 am, to give them time to acclimate. Glucose (insulin syringes) was drawn up either the night before or the morning of the study. Glucose was dosed (IP) at 1.5 g/kg at 7.5 ml/kg (20% glucose straight TEKNOVA, 250 ml sterile bottle w/catalogue number G0525). Test compounds were kept spinning and were only drawn into the syringes prior to study commencement. Animals were bled via tail snip to determine basal glucose levels prior to dosing of treatments. An Ascensia BREEZE Blood Glucose Monitoring System by Bayer (using unique 10-test disks) was used for determining glucose levels. The bleeds started at approximately 12:45 pm and dosing started, at 1-minute intervals, immediately after. All groups were dosed 30 minutes prior to glucose administration at a dose volume of 10 ml/kg (the dose volume was calculated separately for each individual animal). Thirty minutes after the first dose animals were bled again for a second baseline, or T=0, and immediately dosed with glucose via an i.p. injection. The exact dose volume for glucose was also calculated separately for each individual animal. Glucose measurements were taken at −30 min prior to compound dose, at t=0 (immediately prior to glucose dose), and at 15, 30, 45, 60, 90 min post glucose dose.
(§2) Glucose values were entered into an Excel sheet and graphed in GraphPad Prism. The following were calculated from Prism: Change from −30 to 0 BSLN Glucose, Raw Glucose AUC −30 to 90 min, Delta Glucose AUC −30 to 90 min, Raw Glucose AUC 0 to 90 min, Delta Glucose AUC 0 to 90 min.

For test [3], the system named is C57bl/6J Mice. Description: C57bl6 mouse OGTT. It counts as in vivo. As to the method: as §1, §2
The assay design is the same as that described above for the C57bl6 mouse IPGTT. The difference is that glucose was dosed PO at 3 g/kg, 7.5 ml/kg of 40% glucose.

For the compound `Cc1cc2cc(OC(F)(F)F)cc(COc3ccc(CCC(=O)O)c(C)c3C)c2o1` [Compound 36, 3-(2,3-Dimethyl-4-{[2-methyl-5-(trifluoromethoxy)-1-benzofuran-7-yl]methoxy}phenyl)propanoic acid], in test [1], the pEC50 was 7.16. Further, the figures for the “Dose Responses C57 IPGTT” value in test [2] (3 mg/kg), in test [2] (10 mg/kg) and in test [2] (30 mg/kg) were −7%, −36% and −46%, respectively.
`CCc1cc2ccc(OC(F)F)c(COc3ccc(CCC(=O)O)c(C)c3C)c2o1` [Compound 70, 3-(4-{[6-(Difluoromethoxy)-2-ethyl-1-benzofuran-7-yl]methoxy}-2,3-dimethylphenyl)propanoic acid]: the negative-log EC50 (pEC50) in test [1] was 5.89.
With `CCc1cc2cc(Cl)c(C)c(COc3ccc(CCC(=O)O)c(C)c3C)c2o1` [Compound 40, 3-{4-[(5-Chloro-2-ethyl-6-methyl-1-benzofuran-7-yl)methoxy]-2,3-dimethylphenyl}propanoic acid], the “Dose Responses C57 IPGTT” value is reported as −28% in test [2] (1 mg/kg), 13% in test [2] (3 mg/kg) and −34% in test [2] (10 mg/kg).
Regarding `CCc1cc2cc(Cl)cc(COc3ccc(CCC(=O)O)c4c3CCC4)c2o1` [Compound 54, 3-{7-[(5-Chloro-2-ethyl-1-benzofuran-7-yl)methoxy]-2,3-dihydro-1H-inden-4-yl}propanoic acid], the pEC50 in test [1] was 6.82.
With `CCc1cc2cc(Cl)cc(COc3ccc(CCC(=O)O)c(C)c3C)c2o1` [Compound 11, 3-{4-[(5-Chloro-2-ethyl-1-benzofuran-7-yl)methoxy]-2,3-dimethylphenyl}propanoic acid], the pEC50 in test [1] is 7.03. Besides, the “Dose Responses C57 OGTT” value in test [3] (3 mg/kg) was −30%; in test [3] (10 mg/kg), −38%; in test [3] (30 mg/kg) it was −43%.
In turn, `CCc1cc2cc(OC(F)(F)F)cc(COc3ccc(CCC(=O)O)c(C)c3C)c2o1` [Compound 12, 3-(4-{[2-Ethyl-5-(trifluoromethoxy)-1-benzofuran-7-yl]methoxy}-2,3-dimethylphenyl)propanoic acid] had a pEC50 in test [1] of 7.15. The “Dose Responses C57 OGTT” value in test [3] (3 mg/kg) was 6%; in test [3] (10 mg/kg), −26%; in test [3] (30 mg/kg) it was −30%.
As to `Cc1cc2cc(F)cc(COc3ccc(CCC(=O)O)c(C)c3C)c2o1` [Compound 2, 3-{4-[(5-Fluoro-2-methyl-1-benzofuran-7-yl)methoxy]-2,3-dimethylphenyl}propanoic acid], the “Dose Responses C57 IPGTT” value in test [2] (1 mg/kg) is recorded as −3%; in test [2] (3 mg/kg), −20%; in test [2] (10 mg/kg), −27%; in test [2] (30 mg/kg) it was −53%. In addition, the “Dose Responses C57 OGTT” value in test [3] (3 mg/kg) is −29%; in test [3] (10 mg/kg), −31%; in test [3] (30 mg/kg), −51%.
In the case of `CCc1cc2cc(F)cc(COc3ccc(CCC(=O)O)c(C)c3C)c2o1` [Compound 3, 3-{4-[(2-Ethyl-5-fluoro-1-benzofuran-7-yl)methoxy]-2,3-dimethylphenyl}propanoic acid], the “Dose Responses C57 OGTT” value in test [3] (3 mg/kg) is on record as −15%; in test [3] (10 mg/kg), −24%; in test [3] (30 mg/kg), −35%. For the same compound, in test [3] (30 mg/kg, glucose PO 3 g/kg), the “C57 OGTT result” value is reported as −35.

These data come from US9562053B2, “Benzo-fused heterocyclic derivatives useful as agonists of GPR120” (Janssen Pharmaceutica NV, priority 2013, dated 2017).
